From patent publication US20080044484A1, “Use of polymeric nanoparticles for vaccine delivery” (THE REGENTS OF THE UNIVERSITY OF CALIFORNIA, priority 2004, published 2008)

Key:
T2 cells [1] = test: IFNγ release by CTL (ELISA) after incubation with peptide-loaded T2 cells; type: cell-based, human; settings: CTL elicited with the corresponding HER2/neu peptide, 20 h, 10^5 CTL/well
Method: In interferon gamma-release assays, 10^5 HER2/neu-specific CTL were co-incubated with 10^5 peptide-loaded T2 cells for 20 hours at 37° C. The concentrations of human interferon gamma in co-cultured supernatants were then determined by ELISA.

[2] = system: breast cancer cells MDA-MB-231; test: IFNγ release by CTL (ELISA) after incubation with peptide-loaded MDA-MB-231 cells; type: cell-based, human; settings: CTL elicited with the corresponding HER2/neu peptide, 20 h, 10^5 CTL/well
Method: In interferon gamma release assays, 10^5 HER2/neu-specific CTL were co-incubated with 10^5 peptide-loaded tumor cells for 20 hours at 37° C. The concentration of human interferon gamma in co-cultured supernatants was then determined by ELISA.

[3] = system: ICP47-transfected cells MCF7; test: Functional blockade of TAP by ICP47, 51Cr-release from peptide-loaded cells; type: cell-based, human; settings: CTL reactive against the corresponding HER2/neu peptide, 3 days after peptide loading, 6-hour assay
From the text: Another aspect in these studies was to determine the mechanisms of enhancement of the antigen presentation by the fusion peptides in human tumor cell lines. Therefore, a new test system was developed utilizing the Herpes Simplex virus (HSV) protein ICP47. ICP47 is a cytoplasmic protein, which interferes with antigen presentation by physically associating with TAP within the cell and inhibiting peptide transport across the ER-membrane. By transfecting the ICP47 gene into several cancer cell lines a novel system for screening different fusion peptides for TAP-independent translocation of peptide antigens through the ER-membrane was generated.
The expression of these antigens was detected by ^51Cr-release assays.

T2 cells [4] = test: 51Cr-release assay using T2 cells pulsed with HER2/neu-derived peptides as targets for CTL; settings: T2 pulsed with the peptide; percentage of specific lysis
Method: To probe class I presentation of cells loaded with the fusion peptides and their counterpart minimal peptides CTL recognizing the HER2/neu-derived peptides were generated. In vitro peripheral blood mononuclear cells (PBMCs) were immunized from healthy donors with these peptides in the presence of interleukin 2 and interleukin 7 using the following technique:
The next day, 12 units/ml IL-2 (Chiron) and 30 units/ml IL-7 (R & D Systems) were added to the cultures. Lymphocytes were re-stimulated weekly with peptide-pulsed autologous adherent cells as follows: First, autologous PBMC were incubated with HER2/neu peptide (10 μg/ml) for 3 h at 37° C. Nonadherent cells were then removed by a gentle wash and the adherent cells were incubated with fresh medium containing the HER2/neu peptide (10 μg/ml) for an additional 3 h at 37° C.
The induction of CTL in human PBMC was monitored in a conventional ^51Cr-labeling release assay. Briefly, peptide-pulsed TAP^−/HLA-A2.1^+ human T2 cells were incubated with 10 μg of HER2/neu peptides or the MART-1 control peptide for 90 min during labeling with ^51Cr. After washing, the target cells were added to serially diluted effectors in 96-well microplates. After a 6-h incubation at 37° C., supernatants were harvested and counted in a gamma counter. Results are expressed as the percentage of specific lysis and determined as follows: [(experimental cpm−spontaneous cpm)/(maximum cpm−spontaneous cpm)]×100.

Substance	Release of IFNγ by CTL, T2 cells loaded with the peptide (T2 cells [1]; Day 1 after peptide loading) [pg/mL]	Release of IFNγ by CTL, T2 cells loaded with the peptide (T2 cells [1]; Day 3 after peptide loading) [pg/mL]	Release of IFNγ by CTL, T2 cells loaded with the peptide (T2 cells [1]; Day 5 after peptide loading) [pg/mL]	Release of IFNγ by CTL, T2 cells loaded with the peptide (T2 cells [1]; Day 8 after peptide loading) [pg/mL]	Release of IFNγ by CTL, MDA-MB-231 cells loaded with the peptide ([2]; Day 1 after peptide loading) [pg/mL]	Release of IFNγ by CTL, MDA-MB-231 cells loaded with the peptide ([2]; Day 3 after peptide loading) [pg/mL]	Release of IFNγ by CTL, MDA-MB-231 cells loaded with the peptide ([2]; Day 5 after peptide loading) [pg/mL]	Release of IFNγ by CTL, MDA-MB-231 cells loaded with the peptide ([2]; Day 8 after peptide loading) [pg/mL]	Percent 51Cr Released From ICP47-transfected MCF7 cells loaded with the construct ([3]; E:T 20:1) [%]	Percent 51Cr Released From ICP47-transfected MCF7 cells loaded with the construct ([3]; E:T 40:1) [%]	51Cr-release, E:T ratio 1.5:1 (T2 cells [4]) [%]	51Cr-release, E:T ratio 3.1 (T2 cells [4]) [%]	51Cr-release, E:T ratio 6:1 (T2 cells [4]) [%]	51Cr-release, E:T ratio 12:1 (T2 cells [4]) [%]	51Cr-release, E:T ratio 25:1 (T2 cells [4]) [%]	51Cr-release, E:T ratio 50:1 (T2 cells [4]) [%]
MTNKCLLQIALLLCFSTTALS HLYQGCQVV (MTNKCLLQIALLLCFSTTALSHLYQGCQVV) [IS-HER48-56]	3268	1264	943	614	–	–	–	–	–	–	–	–	–	–	–	–
CLTSTVQLV MRYMILGLLALAAVCSA (CLTSTVQLVMRYMILGLLALAAVCSA) [HER789-797-ES]	58	78	69	98	–	–	–	–	–	–	–	–	–	–	–	–
MTNKCLLQIALLLCFSTTALS IISAVVGIL (MTNKCLLQIALLLCFSTTALSIISAVVGIL) [IS-HER654-662]	2590	1990	1557	615	2678	1974	1604	628	3	5	–	–	–	–	–	–
M R CLTSTVQLV A A V C S A (MRCLTSTVQLVAAVCSA) [HER789-797-IN-ES]	246	312	121	107	–	–	–	–	–	–	–	–	–	–	–	–
MR HLYQGCQVV AAVCSA (MRHLYQGCQVVAAVCSA) [HER48-56-IN-ES]	3368	1349	988	228	–	–	–	–	–	–	–	–	–	–	–	–
CLTSTVQLV MTNKCLLQIALLLCFSTTA (CLTSTVQLVMTNKCLLQIALLLCFSTTA) [HER789-797-IS]	69	78	87	59	–	–	–	–	–	–	–	–	–	–	–	–
MRYMILGLLALAAVCSA HLYQGCQVV (MRYMILGLLALAAVCSAHLYQGCQVV) [ES-HER48-56]	2894	1876	953	589	–	–	–	–	–	–	–	–	–	–	–	–
CLTSTVQLV (listed as Homo sapiens) [HER2/neu789-797]	2924	317	116	91	–	–	–	–	–	–	9	22	31	52	62	83
MTNKCLLQIALLLCFSTTALS CLTSTVQLV (MTNKCLLQIALLLCFSTTALSCLTSTVQLV) [IS-HER789-797]	1717	315	125	104	–	–	–	–	–	–	–	–	–	–	–	–
MRYMILGLLALAAVCSA CLTSTVQLV (MRYMILGLLALAAVCSACLTSTVQLV) [ES-HER789-797]	1824	526	168	110	–	–	–	–	–	–	–	–	–	–	–	–
HLYQGCQVV (listed as Homo sapiens) [HER2/neu48-56]	2280	488	134	177	–	–	–	–	–	–	8	19	33	41	53	88
HLYQGCQVV MTNKCLLQIALLLCFSTTALS (HLYQGCQVVMTNKCLLQIALLLCFSTTALS) [HER48-56-IS]	288	148	155	121	–	–	–	–	–	–	–	–	–	–	–	–
IISAVVGIL MTNKCLLQIALLLCFSTTALS (IISAVVGILMTNKCLLQIALLLCFSTTALS) [HER654-662-IS]	111	99	121	76	144	102	132	86	–	–	–	–	–	–	–	–
HLYQGCQVV MRYMILGLLALAAVCSA (HLYQGCQVVMRYMILGLLALAAVCSA) [HER48-56-ES]	418	218	99	101	–	–	–	–	–	–	–	–	–	–	–	–
IISAVVGIL MRYMILGLLALAAVCSA (IISAVVGILMRYMILGLLALAAVCSA) [HER654-662-ES]	144	124	137	83	188	138	135	93	–	–	–	–	–	–	–	–
M A CLTSTVQLV A A A A A G (MACLTSTVQLVAAAAAG) [HER789-797-IN-AF]	296	327	178	117	–	–	–	–	–	–	–	–	–	–	–	–
IISAVVGIL (listed as Homo sapiens) [HER2/neu654-662, reference compound]	2827	429	121	167	2826	438	131	147	–	–	13	26	38	59	71	91
